From paper PMC3558798 (British Journal of Clinical Pharmacology, 2012)
Like-named read-outs stand apart in the source and are kept apart here. Each block holds one molecule with its values, some of them ahead of it.

Experiments:
[1] = system: activated partial thromboplastin time (aPTT); assay: Food effect study: aPTT; assay type: in vivo, human; settings: 3 h after 10 mg oral tablet
thromboembolic events = settings: patients who had received total knee or hip replacement surgery; cited from earlier work
[2] = Single ascending-dose study: template bleeding time; assay type: in vivo, human; settings: between pre-dose and 3.5 h post-dose
[3] = system: international normalized ratio (INR); assay: Single ascending-dose study: INR; assay type: in vivo, human; settings: for mean maximum INR: 0–24 h post-dose
[4] = Single ascending-dose study: safety assessments; assay type: in vivo, human
clinical [5] = settings: human, plasma, oral, 10 mg; for AUC(0-t): AUC(0,t) Adjusted geometric mean; for AUC(0-inf): AUC(0,∞) Adjusted geometric mean; for Cmax: Cmax Adjusted geometric mean
venous thrombosis = settings: at doses that preserved haemostasis; cited from earlier work
[6] = system: international normalized ratio (INR); assay: Food effect study: INR; assay type: in vivo, human; settings: for INR Mean (SD) change from baseline: 3 h after 10 mg oral tablet
[7] = Food effect study: safety assessments; assay type: in vivo, human
[8] = system: activated partial thromboplastin time (aPTT); assay: Single ascending-dose study: aPTT; assay type: in vivo, human
[9] = system: modified prothrombin time (mPT); assay: Single ascending-dose study: modified prothrombin time; assay type: in vivo, human
prothrombin time (PT) = assay: Food effect study: PT; assay type: in vivo, human; settings: 3 h after 10 mg oral tablet
[10] = 10 mg, high fat, high calorie meal vs fasted
clinical [11] = settings: human, plasma; for half-life: oral; for AUC(0-inf) / AUC(0-t) / Cmax / Tmax: po; for Tmax: Median tmax, range over doses
[12] = oral; cited from earlier work
[13] = high calorie, high fat breakfast; cited from earlier work
[14] = cited from earlier work
[15] = single 10 mg dose following standard high calorie, high fat meal
[16] = single 20 mg dose following a similar meal

change in template bleeding time [2]: ≤ 1 min | AUC(0-t) (clinical [5]; 10 mg fasted): 1730 ng·h/mL | AUC(0-t) (clinical [5]; 10 mg fed): 1810 ng·h/mL | AUC(0-inf) (clinical [5]; 10 mg fasted): 1790 ng·h/mL | AUC(0-inf) (clinical [5]; 10 mg fed): 1870 ng·h/mL | Cmax (clinical [5]; 10 mg fasted): 151 ng/mL | Cmax (clinical [5]; 10 mg fed): 165 ng/mL | half-life (clinical [5]; half-life, food effect study): ~11.5 h | Inter-subject variability, %CV for Cmax and AUC (across all doses, regardless of formulation): approximately 30% | increase in median tmax with food [10]: 1 h | half-life (clinical [11]; 10 mg, half-life, single doses, overall conclusion): ~12 h | half-life (clinical [11]; t1/2, range, doses that provided sufficient data to characterize the terminal elimination phase (i.e. 5–50 mg)): 7 to 27 h | AUC(0-inf) (clinical [11]; 0.5 mg): 61.9 ng·h/mL | AUC(0-t) (clinical [11]; 0.5 mg): 52.7 ng·h/mL | Cmax (clinical [11]; 0.5 mg): 9.1 ng/mL | AUC(0-inf) (clinical [11]; 1 mg): 174 ng·h/mL | AUC(0-t) (clinical [11]; 1 mg): 163 ng·h/mL | Cmax (clinical [11]; 1 mg): 23.5 ng/mL | AUC(0-inf) (clinical [11]; 2.5 mg): 438 ng·h/mL | AUC(0-t) (clinical [11]; 2.5 mg): 421 ng·h/mL | Cmax (clinical [11]; 2.5 mg): 52.5 ng/mL | AUC(0-inf) (clinical [11]; 5 mg): 1020 ng·h/mL | AUC(0-t) (clinical [11]; 5 mg): 977 ng·h/mL | Cmax (clinical [11]; 5 mg): 105 ng/mL | AUC(0-inf) (clinical [11]; 10 mg): 1300 ng·h/mL | AUC(0-t) (clinical [11]; 10 mg): 1270 ng·h/mL | Cmax (clinical [11]; 10 mg): 176 ng/mL | AUC(0-inf) (clinical [11]; 25 mg): 4010 ng·h/mL | AUC(0-t) (clinical [11]; 25 mg): 3870 ng·h/mL | Cmax (clinical [11]; 25 mg): 365 ng/mL | AUC(0-inf) (clinical [11]; 50 mg): 7560 ng·h/mL | AUC(0-t) (clinical [11]; 50 mg): 7100 ng·h/mL | Cmax (clinical [11]; 50 mg): 685 ng/mL | Tmax (clinical [11]; oral solution (0.5–2.5 mg)): 1.5 to 1.8 h | Tmax (clinical [11]; oral tablet (5–50 mg)): 2.5 to 3.3 h
SMILES: COc1ccc(-n2nc(C(N)=O)c3c2C(=O)N(c2ccc(N4CCCCC4=O)cc2)CC3)cc1 [apixaban, 1-(4-methoxyphenyl)-7-oxo-6-(4-(2-oxopiperidin-1-yl)phenyl)-4,5,6,7-tetrahydro-1H -pyrazolo[3,4-c]pyridine-3-carboxamide]
aPTT Mean (SD) ([1]; fasted, n = 23): 32.96 (3.59) | aPTT Mean (SD) change from baseline ([1]; fasted, n = 23): 3.05 (2.59) | aPTT Mean (SD) ([1]; fed, n = 22): 31.55 (3.02) | aPTT Mean (SD) change from baseline ([1]; fed, n = 22): 2.90 (2.21) | prevention of thromboembolic events vs enoxaparin 40 mg daily (thromboembolic events): superior to enoxaparin | mean % change from baseline in maximum INR ([3]; 10 mg dose): 19.5% | mean % change from baseline in maximum INR ([3]; 25 mg dose): 44.1% | mean maximum INR ([3]; 25 mg dose): 1.45 | mean % change from baseline in maximum INR ([3]; 50 mg dose): 55.8% | mean maximum INR ([3]; 50 mg dose): 1.71 | peak INR increase from baseline ([3]; after a 50 mg dose): 1.6 fold | time until changes in pharmacodynamic parameters were evident ([3]; following a single dose, clotting assay parameters (INR, aPTT and mPT)): less than 1 h | subjects with bleeding-related AEs ([4]; haematochezia at 25 mg (one), haematuria at 50 mg (two), all mild): Three subjects had bleeding-related AEs | serious AEs or major bleeding-related events ([4]; single oral doses 0.5–50 mg): no serious AEs or major bleeding-related events | dose-limiting AEs ([4]; single oral doses of up to 50 mg): No dose-limiting AEs were observed | dose proportionality of Cmax, AUC(0,∞) and AUC(0,t) (0.5–50 mg): increased approximately proportionally to dose | antithrombotic effects (venous thrombosis): potent antithrombotic effects | individual INR (highest) ([6]; 10 mg, fed and fasted): ≤ 2.0 | time for INR, aPTT and PT to return to baseline ([6]; 10 mg, fed and fasted): ≤ 24 h | INR Mean (SD) change from baseline ([6]; fasted, n = 23): 0.23 (0.13) | INR Mean (SD) change from baseline ([6]; fed, n = 22): 0.20 (0.12) | elevated alanine transaminase level ([7]; one subject, discontinued, 10 mg): 3 × upper limit of normal [ULN] | elevations in aspartate aminotransferase and gamma-glutamyl transferase levels ([7]; same one subject, 10 mg): < 2 × ULN | bleeding-related AEs ([7]; single 10 mg doses): no bleeding-related AEs | serious AEs or major bleeding-related events ([7]; single 10 mg doses, fed and fasted): no serious AEs or major bleeding-related events | mean % change from baseline in maximum aPTT ([8]; 25 mg dose): 25.7% | mean maximum aPTT ([8]; 25 mg dose, baseline 30.4 s): 38.2 s | mean % change from baseline in maximum aPTT ([8]; 50 mg dose): 23.1% | mean maximum aPTT ([8]; 50 mg dose, baseline 28.6 s): 35.1 s | peak aPTT increase from baseline ([8]; after a 50 mg dose): 1.2 fold | mean % change from baseline in maximum mPT ([9]; 2.5 mg dose): 35.0% | mean % change from baseline in maximum mPT ([9]; 5 mg dose): 42.9% | mean % change from baseline in maximum mPT ([9]; 10 mg dose): 87.1% | mean % change from baseline in maximum mPT ([9]; 25 mg dose): 135.3% | mean % change from baseline in maximum mPT ([9]; 50 mg dose): 187.1% | peak mPT increase from baseline ([9]; after a 50 mg dose): 2.9 fold | PT Mean (SD) (prothrombin time (PT); fasted, n = 23): 14.99 (1.24) | PT Mean (SD) change from baseline (prothrombin time (PT); fasted, n = 23): 1.39 (0.89) | PT Mean (SD) (prothrombin time (PT); fed, n = 22): 14.66 (0.97) | PT Mean (SD) change from baseline (prothrombin time (PT); fed, n = 22): 1.30 (0.85) | bioavailability [12]: ~50%

SMILES: [H]/N=C(/N)c1ccc(NCc2nc3cc(C(=O)N(CCC(=O)O)c4ccccn4)ccc3n2C)cc1 [dabigatran]
effect of food on extent of absorption [13]: did not affect the extent of absorption

SMILES: O=C(NC[C@H]1CN(c2ccc(N3CCOCC3=O)cc2)C(=O)O1)c1ccc(Cl)s1 [rivaroxaban]
increase in AUC(0,∞) with food [14, 15]: 28% | increase in Cmax with food [14, 15]: 41% | increase in AUC(0,∞) with food [14, 16]: 23% | increase in Cmax with food [14, 16]: 74%
